Data set [1] relates to C-32 cells (human melanoma). Kind of data set: In vitro cytotoxicity, MTT cell proliferation assay. It is filed as cell-based. The following applies: 48 hours, free drug.
Procedure: The toxicity of Dox linked to the nanoarticles via the amide bond was tested in an in vitro toxicity assay against C-32 cells (human melanoma).
In a 96-well tissue culture microtiter plate, 10,000 cells of C-32 per well in culture medium were allowed to attach for 2 hours prior to incubation with varying concentrations of Dox-amide nanoarticle, and free Dox. Cells were incubated at 37° C., 5% CO2 in a humidified chamber for 48 hours. Cell proliferation was assayed using the calorimetric MTT kit (CT01, Chemicon, Int.).
The toxicity of Dox linked to the nanoarticles via the hydrazone bond was tested in an in vitro toxicity assay against C-32 cells (human melanoma).
In a 96-well tissue culture microtiter plate, 10,000 cells of C-32 per well in culture medium were allowed to attach for 2 hours prior to incubation with varying concentrations of Dox-hydrazone nanoarticle, and free Dox. Cells were incubated at 37° C., 5% CO2 in a humidified chamber for 48 hours. Cell proliferation was assayed using the calorimetric MTT kit (CT01, Chemicon, Int.).
In data set [2] the test system is CL66 murine mammary carcinoma cells.
Procedure: The efficacy and toxicity of nano-article-conjugated doxorubicin (Dox-NP) was compared to doxorubicin (Dox) and a saline control. Dox-NP of composition 14/1/1 IMMA/CiBA/NaA, 5.6 w % Dox were made following procedures described in Example 16.
CL66 murine mammary carcinoma cells were grown to 80-90% confluence in supplemented media, trypsinized for 2 min at 37° C. with 1× trypsin, rinsed with Hank's Balanced Salt Solution (w/out calcium and magnesium) and resuspended at 1×10^6 cell/ml, with 0.1 ml injected into the mammary fat pad of female Balb/C mice.
Lyophilized Dox-NP was reconstituted in sterile PBS at the appropriate concentration and stored at 2-8° C. for at least 1 hour, or overnight. Excipient Dox was diluted in PBS at the appropriate concentrations. 200 μL was injected intravenously through the tail vein of the mice on days 13, 15, and 18 following tumor challenge. Dox was injected at 225 μg/animal, while Dox-NP was injected at a nano-article level sufficient to deliver Dox at 250, 420 and 560 μg/animal.
Tumor volumes were measured superficially in two dimensions. Weight loss (or gain) and survival were recorded.
For data set [3], the system named is chorioallantoic membranes (CAM) of 7-days old chicken embryos incubated with murine mammary carcinoma Cl-66 cells. The following applies: 3-day incubation. How it is done:
The chorioallantoic membranes (CAM) of 7-days old chicken embryos were incubated with each 10^5 cells of the murine mammary carcinoma Cl-66 24 hours prior to a 3-day incubation with disks containing either 5 μg of Doxorubicin, 5 μg of Dox equivalent in nanoparticles (14/1/1 IMMA/NOBA/NaA, PEG3400), 5 μg of Dox equivalent in nanoparticles functionalized with cyclic-RGD (14/1/1 IMMA/NOBA/NaA, PEG3400-cRGD), or PBS as a control. Linker attachment to nanoparticles was made as described in Example 31.
After 3 days, CAMs were excised and photographed for analysis.

The structures appear in SMILES notation.

`COc1cccc2c1C(=O)c1c(O)c3c(c(O)c1C2=O)C[C@@](O)(C(=O)CO)C[C@@H]3O[C@H]1C[C@H](N)[C@H](O)[C@H](C)O1` [Doxorubicin] registered a 50% growth inhibition in data set [1] of 0.8 µg/mL. Further, the survival time entry in data set [2] (225 μg/animal Dox compared with the higher doses of Dox-NP) is listed as “slightly longer survival time”. Moreover, in data set [2] (225 μg/animal i.v. on days 13, 15, 18), the toxicity result is listed as “toxic”. Moreover, the “reduction of the number of blood vessels / blood vessel distribution around the disk” value in data set [3] (disks with 5 μg Dox or Dox equivalent) is reported as “most effective in reducing the number of blood vessels”. Moreover, the “embryos died during treatment” value in data set [3] (disks with 5 μg) is 3 out of 10.

The values above are taken from US20050129769A1, “Polymeric articles for carrying therapeutic agents” (priority 2002, published 2005).
